Legend:
Experiment in all cases: relative viability (nuclei count vs DMSO), 5 days (fraction); higher = more cells survive
EKVX = system: EKVX
Method in brief: (§1)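 Relative viability was taken as the ratio of nuclei in treated wells to nuclei in vehicle wells. Lung cancer cell lines in 1536-well plates received compounds by pin tool one day after seeding, either one drug alone or a fixed anchor-drug dose plus five library-drug doses (not always all listed) in √10 steps. Nuclei were counted on 4× images after 5 days of treatment, and values are medians of duplicate plates.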

HARA = system: HARA
Method in brief: as §1

NCI-H647 = system: NCI-H647
Method in brief: as §1

NCI-H1792 = system: NCI-H1792
Method in brief: as §1

NCI-H522 = system: NCI-H522
Method in brief: as §1

NCI-H2405 = system: NCI-H2405
Method in brief: as §1

NCI-H358 = system: NCI-H358
Method in brief: as §1

A-427 = system: A-427
Method in brief: as §1

NCI-H1755 = system: NCI-H1755
Method in brief: as §1

NCI-H1650 = system: NCI-H1650
Method in brief: as §1

LU99A = system: LU99A
Method in brief: as §1

HCC-44 = system: HCC-44
Method in brief: as §1

LK-2 = system: LK-2
Method in brief: as §1

NCI-H460 = system: NCI-H460
Method in brief: as §1

NCI-H1993 = system: NCI-H1993
Method in brief: as §1

RERF-LC-KJ = system: RERF-LC-KJ
Method in brief: as §1

NCI-H1734 = system: NCI-H1734
Method in brief: as §1

COR-L 105 = system: COR-L 105
Method in brief: as §1

SW 900 = system: SW 900
Method in brief: as §1

EPLC-272H = system: EPLC-272H
Method in brief: as §1

EMC-BAC-2 = system: EMC-BAC-2
Method in brief: as §1

ChaGo-K-1 = system: ChaGo-K-1
Method in brief: as §1

NCI-H596 = system: NCI-H596
Method in brief: as §1

CCNC(=O)c1noc(-c2cc(C(C)C)c(O)cc2O)c1-c1ccc(CN2CCOCC2)cc1 [Luminespib] + Nc1ncn([C@H]2C[C@H](O)[C@@H](CO)O2)c(=O)n1 [Decitabine] (partner 2 µM)
relative viability (EKVX; first compound 0.002 µM): 0.38 | relative viability (EKVX; first compound 0.006325 µM): 0.31 | relative viability (EKVX; first compound 0.02 µM): 0.273 | relative viability (EKVX; first compound 0.06325 µM): 0.253 | relative viability (EKVX; first compound 0.2 µM): 0.173 | relative viability (HARA; first compound 0.002 µM): 0.55 | relative viability (HARA; first compound 0.006325 µM): 0.569 | relative viability (HARA; first compound 0.02 µM): 0.532 | relative viability (HARA; first compound 0.06325 µM): 0.225 | relative viability (HARA; first compound 0.2 µM): 0.227 | relative viability (NCI-H647; first compound 0.002 µM): 0.391 | relative viability (NCI-H647; first compound 0.006325 µM): 0.484 | relative viability (NCI-H647; first compound 0.02 µM): 0.18 | relative viability (NCI-H647; first compound 0.06325 µM): 0.0995 | relative viability (NCI-H647; first compound 0.2 µM): 0.124 | relative viability (NCI-H1792; first compound 0.002 µM): 0.521 | relative viability (NCI-H1792; first compound 0.006325 µM): 0.458 | relative viability (NCI-H1792; first compound 0.02 µM): 0.429 | relative viability (NCI-H1792; first compound 0.06325 µM): 0.078 | relative viability (NCI-H1792; first compound 0.2 µM): 0.0722 | relative viability (NCI-H522; first compound 0.002 µM): 0.626 | relative viability (NCI-H522; first compound 0.006325 µM): 0.631 | relative viability (NCI-H522; first compound 0.02 µM): 0.593 | relative viability (NCI-H522; first compound 0.06325 µM): 0.6 | relative viability (NCI-H522; first compound 0.2 µM): 0.451 | relative viability (NCI-H2405; first compound 0.002 µM): 0.79 | relative viability (NCI-H2405; first compound 0.02 µM): 0.627 | relative viability (NCI-H2405; first compound 0.06325 µM): 0.297 | relative viability (NCI-H2405; first compound 0.2 µM): 0.191 | relative viability (NCI-H358; first compound 0.002 µM): 0.217 | relative viability (NCI-H358; first compound 0.006325 µM): 0.217 | relative viability (NCI-H358; first compound 0.02 µM): 0.178 | relative viability (NCI-H358; first compound 0.06325 µM): 0.0688 | relative viability (NCI-H358; first compound 0.2 µM): 0.0584 | relative viability (A-427; first compound 0.002 µM): 0.611 | relative viability (A-427; first compound 0.006325 µM): 0.514 | relative viability (A-427; first compound 0.02 µM): 0.446 | relative viability (A-427; first compound 0.06325 µM): 0.599 | relative viability (A-427; first compound 0.2 µM): 0.269 | relative viability (NCI-H1755; first compound 0.002 µM): 0.673 | relative viability (NCI-H1755; first compound 0.006325 µM): 0.691 | relative viability (NCI-H1755; first compound 0.02 µM): 0.696 | relative viability (NCI-H1755; first compound 0.06325 µM): 0.719 | relative viability (NCI-H1755; first compound 0.2 µM): 0.649 | relative viability (NCI-H1650; first compound 0.002 µM): 0.463 | relative viability (NCI-H1650; first compound 0.006325 µM): 0.565 | relative viability (NCI-H1650; first compound 0.02 µM): 0.267 | relative viability (NCI-H1650; first compound 0.06325 µM): 0.137 | relative viability (NCI-H1650; first compound 0.2 µM): 0.133 | relative viability (LU99A; first compound 0.002 µM): 0.953 | relative viability (LU99A; first compound 0.006325 µM): 0.781 | relative viability (LU99A; first compound 0.02 µM): 0.5 | relative viability (LU99A; first compound 0.06325 µM): 0.855 | relative viability (LU99A; first compound 0.2 µM): 0.879 | relative viability (HCC-44; first compound 0.002 µM): 0.969 | relative viability (HCC-44; first compound 0.006325 µM): 0.953 | relative viability (HCC-44; first compound 0.02 µM): 0.959 | relative viability (HCC-44; first compound 0.06325 µM): 0.954 | relative viability (HCC-44; first compound 0.2 µM): 0.863 | relative viability (LK-2; first compound 0.002 µM): 0.32 | relative viability (LK-2; first compound 0.006325 µM): 0.268 | relative viability (LK-2; first compound 0.02 µM): 0.192 | relative viability (LK-2; first compound 0.06325 µM): 0.0898 | relative viability (LK-2; first compound 0.2 µM): 0.0914 | relative viability (NCI-H460; first compound 0.002 µM): 0.473 | relative viability (NCI-H460; first compound 0.006325 µM): 0.432 | relative viability (NCI-H460; first compound 0.02 µM): 0.0674 | relative viability (NCI-H460; first compound 0.06325 µM): 0.0264 | relative viability (NCI-H460; first compound 0.2 µM): 0.0329 | relative viability (NCI-H1993; first compound 0.002 µM): 0.596 | relative viability (NCI-H1993; first compound 0.006325 µM): 0.579 | relative viability (NCI-H1993; first compound 0.02 µM): 0.48 | relative viability (NCI-H1993; first compound 0.06325 µM): 0.573 | relative viability (NCI-H1993; first compound 0.2 µM): 0.371 | relative viability (RERF-LC-KJ; first compound 0.002 µM): 0.759 | relative viability (RERF-LC-KJ; first compound 0.006325 µM): 0.669 | relative viability (RERF-LC-KJ; first compound 0.02 µM): 0.417 | relative viability (RERF-LC-KJ; first compound 0.06325 µM): 0.225 | relative viability (RERF-LC-KJ; first compound 0.2 µM): 0.198 | relative viability (NCI-H1734; first compound 0.002 µM): 0.489 | relative viability (NCI-H1734; first compound 0.006325 µM): 0.469 | relative viability (NCI-H1734; first compound 0.02 µM): 0.448 | relative viability (NCI-H1734; first compound 0.06325 µM): 0.251 | relative viability (NCI-H1734; first compound 0.2 µM): 0.159 | relative viability (COR-L 105; first compound 0.002 µM): 0.674 | relative viability (COR-L 105; first compound 0.006325 µM): 0.654 | relative viability (COR-L 105; first compound 0.02 µM): 0.567 | relative viability (COR-L 105; first compound 0.06325 µM): 0.234 | relative viability (COR-L 105; first compound 0.2 µM): 0.334 | relative viability (SW 900; first compound 0.002 µM): 0.478 | relative viability (SW 900; first compound 0.006325 µM): 0.472 | relative viability (SW 900; first compound 0.02 µM): 0.417 | relative viability (SW 900; first compound 0.06325 µM): 0.156 | relative viability (SW 900; first compound 0.2 µM): 0.159 | relative viability (EPLC-272H; first compound 0.002 µM): 0.393 | relative viability (EPLC-272H; first compound 0.006325 µM): 0.337 | relative viability (EPLC-272H; first compound 0.02 µM): 0.311 | relative viability (EPLC-272H; first compound 0.06325 µM): 0.282 | relative viability (EPLC-272H; first compound 0.2 µM): 0.106 | relative viability (EMC-BAC-2; first compound 0.002 µM): 0.995 | relative viability (EMC-BAC-2; first compound 0.02 µM): 0.783 | relative viability (EMC-BAC-2; first compound 0.06325 µM): 0.564 | relative viability (EMC-BAC-2; first compound 0.2 µM): 0.237 | relative viability (ChaGo-K-1; first compound 0.002 µM): 0.544 | relative viability (ChaGo-K-1; first compound 0.006325 µM): 0.492 | relative viability (ChaGo-K-1; first compound 0.02 µM): 0.528 | relative viability (ChaGo-K-1; first compound 0.06325 µM): 0.522 | relative viability (ChaGo-K-1; first compound 0.2 µM): 0.535 | relative viability (NCI-H596; first compound 0.002 µM): 1.07 | relative viability (NCI-H596; first compound 0.006325 µM): 0.887 | relative viability (NCI-H596; first compound 0.02 µM): 0.88 | relative viability (NCI-H596; first compound 0.06325 µM): 0.991 | relative viability (NCI-H596; first compound 0.2 µM): 1.01
